In patent US20230076733A1, “Combination Therapy” (AGENCY FOR SCIENCE, TECHNOLOGY AND RESEARCH, priority 2020, published 2023):
pIC50: −log10 of the molar value. Where “and” joins values, the source holds several entries; their conditions need not be identical. Equal values may be shown once.

What was measured:
Format in all cases: cell-based
EGI-1 cells = assay: soft agar colony formation assay, EGI-1 cells; conditions: for Colony count: duplicate wells
Protocol: (§1) The IC50 and EC50 values for each combination partner (a) and (b) with the specific cell lines are determined from the response plot. A dose-response assay for each combination partner and the combination at different concentrations based on the IC50 values of each combination partner was performed. Computed EC50-EC95 values were then generated by a software (as disclosed herein) based on the drug concentration and the respective colony growth numbers.
(§2) 6. Cell lines used and number of cells seeded per well
(§3) (1) Base Layer—0.6% Agar per 300 μL per well.
(§4) Microwave the agar for 1-2 min so that it is completely melted. Add 5.4 ml of the melted agar into 21.6 ml of pre-warmed media (All media and agar preparation is made in excess for 2.5 plates). Aliquot 300 μl of the suspension into each well, avoiding the first and last columns of the plates. Fill the first and last columns of wells with 500 μl of sterile water or phosphate buffered saline. Incubate the plates in 37° C. incubator for 45 min-1 hr to allow agar to solidify.
(§5) (2) Middle Layer— 0.3% Agar plus corresponding number of cells per well
(§6) Trypsinize the adherent cells and suspend them in 5 ml of media. Determine the number of cells in the suspension and calculate the volume of cell suspension required for seeding. Mix the agar and media together first, excluding the volume of cell suspension. Add the cell suspension last into the mixture. Mix well and aliquot 250 μl into each well containing the base layer. Incubate the plates in a 37° C. incubator for 1-1.5 hrs to allow the agar to solidify.
(§7) Prepare the required concentration of compounds based on the IC50 values of each drug.
(§8) (Pre-determine the IC50 values for each drug with the corresponding cell-line using a dose-response assay)
(§9) Row A& B: Aliquot 250 μl of diluted Drug A per well
(§10) Row C&D: Aliquot 250 μl of diluted Drug B per well
(§11) Row E& F: Aliquot 250 μl of diluted Drug A and B mixed at 1:1 ratio for each well
(§12) Assay Results Analysis Method • 1. Score the colonies after 2 to 3 weeks depending on the colony forming status for different cell line. • 2. Before scoring the colonies, add 35 μl MTT (5 mg/ml) to the wells with cells and incubate at 37° C. for 2-3 hrs depending on the intensity of colour development. • 3. Once the colonies are stained, count the total number of colonies formed using the Oxford Optronix GelCount® instrument. • 4. Average the total number of colonies obtained for each drug dose point and represent it as a fraction over the control. This represents the fraction of colony growth. […] Incorporate the fraction of inhibition and the corresponding dose values into the Chou Talalay Software available online (http://www.combosyn.com/) to obtain the combination index values. • 6. The combination index values will give an indication as to whether the combined drugs are synergistic, antagonistic or additive in the treated cells, as shown in Table 2 below.
FIG. 2 illustrates a dose-response assay plate containing EGI-1 cells (Test 1) after testing compounds at different concentrations based on the IC50 values of each compound. EGI-1 is a cell line established from cholangiocarcinoma (bile duct adenocarcinoma).

MCAS cells = assay: soft agar colony formation assay, MCAS cells; conditions: for Colony count: MCAS, duplicate wells
Protocol: as §1, §2, §3, §4, §5, §6, §7, §8, §9, §10, §11
as §12, with “6.” for “6. The combination index values will give an indication as to whether the combined drugs are synergistic, antagonistic or additive in the treated cells, as shown in Table 2 below.”
MCAS is a cell line established from ovarian mucinous cystadenocarcinoma (ovarian cancer).

CFPAC-1 cells = assay: soft agar colony formation assay, CFPAC-1 cells; conditions: for Colony count: duplicate wells
Protocol: as §1, §2, §3, §4, §5, §6, §7, §8, §9, §10, §11, §12
FIG. 8 illustrates a dose-response assay plate containing CFPAC-1 cells (Test 1) after testing compounds at different concentrations based on the IC50 values of each compound. CFPAC-1 is a cell line established from cystic fibrosis and pancreatic ductal adenocarcinoma.

TFK-1 cells = assay: soft agar colony formation assay, TFK-1 cells; conditions: for Colony count: duplicate wells
Protocol: as §1, §2, §3, §4, §5, §6, §7, §8, §9, §10, §11, §12
FIG. 10 illustrates a dose-response assay plate containing TFK-1 cells (Test 1) after testing compounds at different concentrations based on the IC50 values of each compound. TFK-1 is a cell line established from cholangiocarcinoma (bile duct adenocarcinoma).

HPAF-II cells = assay: soft agar colony formation assay, HPAF-II cells; conditions: HPAF-II, duplicate wells
Protocol: as §1, §2, §3, §4, §5, §6, §7, §8, §9, §10, §11, §12
FIG. 4 illustrates of a dose-response assay plate containing HPAF-II cells (Test 1) after testing compounds at different concentrations based on the IC50 values of each compound. HPAF-II is a cell line established from pancreatic ductal adenocarcinoma (pancreatic cancer).

O=C(c1cc(Cc2n[nH]c(=O)c3ccccc23)ccc1F)N1CCN(C(=O)C2CC2)CC1 [Olaparib, reference compound]
Colony count (EGI-1 cells; EGI-1, Test 1, 0.25x IC50: dose Olaparib 2.16362, Ex 1 0.00687, combination both 1:1): 1658 and 1605 | Colony count (EGI-1 cells; EGI-1, Test 1, 0.5x IC50: dose Olaparib 4.32725, Ex 1 0.01375, combination both 1:1): 1362 and 1300 | Colony count (EGI-1 cells; EGI-1, Test 1, 1x IC50: dose Olaparib 8.6545, Ex 1 0.0275, combination both 1:1): 935 and 908 | Colony count (EGI-1 cells; EGI-1, Test 1, 2x IC50: dose Olaparib 17.309, Ex 1 0.055, combination both 1:1): 454 and 489 | Colony count (EGI-1 cells; EGI-1, Test 1, 4x IC50: dose Olaparib 34.618, Ex 1 0.11, combination both 1:1): 209 and 197 | Colony count (EGI-1 cells; EGI-1, Test 2, 0.25x IC50: dose Olaparib 2.16362, Ex 1 0.00687, combination both 1:1): 1591 and 1717 | Colony count (EGI-1 cells; EGI-1, Test 2, 0.5x IC50: dose Olaparib 4.32725, Ex 1 0.01375, combination both 1:1): 1403 and 1442 | Colony count (EGI-1 cells; EGI-1, Test 2, 1x IC50: dose Olaparib 8.6545, Ex 1 0.0275, combination both 1:1): 856 and 1052 | Colony count (EGI-1 cells; EGI-1, Test 2, 2x IC50: dose Olaparib 17.309, Ex 1 0.055, combination both 1:1): 445 and 482 | Colony count (EGI-1 cells; EGI-1, Test 2, 4x IC50: dose Olaparib 34.618, Ex 1 0.11, combination both 1:1): 144 and 198 | pIC50 (EGI-1 cells; Homo sapiens, EGI-1 cells, pre-determined by dose-response assay): 5.06 | pIC50 (MCAS cells; MCAS cells, pre-determined by dose-response assay): 5.40 | Colony count (MCAS cells; Test 1, 0.25x IC50: dose Olaparib 0.99475, Ex 1 0.07175, combination both 1:1): 429 and 425 | Colony count (MCAS cells; Test 1, 0.5x IC50: dose Olaparib 1.9895, Ex 1 0.1435, combination both 1:1): 363 and 402 | Colony count (MCAS cells; Test 1, 1x IC50: dose Olaparib 3.979, Ex 1 0.287, combination both 1:1): 273 and 227 | Colony count (MCAS cells; Test 1, 2x IC50: dose Olaparib 7.958, Ex 1 0.574, combination both 1:1): 188 and 141 | Colony count (MCAS cells; Test 1, 4x IC50: dose Olaparib 15.918, Ex 1 1.148, combination both 1:1): 112 and 97 | Colony count (MCAS cells; Test 2, 0.25x IC50: dose Olaparib 0.99475, Ex 1 0.07175, combination both 1:1): 951 and 929 | Colony count (MCAS cells; Test 2, 0.5x IC50: dose Olaparib 1.9895, Ex 1 0.1435, combination both 1:1): 741 and 668 | Colony count (MCAS cells; Test 2, 1x IC50: dose Olaparib 3.979, Ex 1 0.287, combination both 1:1): 393 and 359 | Colony count (MCAS cells; Test 2, 2x IC50: dose Olaparib 7.958, Ex 1 0.574, combination both 1:1): 155 | Colony count (MCAS cells; Test 2, 4x IC50: dose Olaparib 15.916, Ex 1 1.148, combination both 1:1): 85 and 82 | Colony count (CFPAC-1 cells; CFPAC-1, Test 1, 0.25x IC50: dose Olaparib 1.5625, Ex 1 0.00675, combination both 1:1): 441 and 429 | Colony count (CFPAC-1 cells; CFPAC-1, Test 1, 0.5x IC50: dose Olaparib 3.125, Ex 1 0.0135, combination both 1:1): 314 and 309 | Colony count (CFPAC-1 cells; CFPAC-1, Test 1, 1x IC50: dose Olaparib 6.25, Ex 1 0.027, combination both 1:1): 259 and 289 | Colony count (CFPAC-1 cells; CFPAC-1, Test 1, 2x IC50: dose Olaparib 12.5, Ex 1 0.054, combination both 1:1): 194 and 196 | Colony count (CFPAC-1 cells; CFPAC-1, Test 1, 4x IC50: dose Olaparib 25, Ex 1 0.108, combination both 1:1): 80 and 97 | Colony count (CFPAC-1 cells; CFPAC-1, Test 2, 0.25x IC50: dose Olaparib 1.5625, Ex 1 0.00675, combination both 1:1): 586 and 545 | Colony count (CFPAC-1 cells; CFPAC-1, Test 2, 0.5x IC50: dose Olaparib 3.125, Ex 1 0.0135, combination both 1:1): 439 and 442 | Colony count (CFPAC-1 cells; CFPAC-1, Test 2, 1x IC50: dose Olaparib 6.25, Ex 1 0.027, combination both 1:1): 328 and 371 | Colony count (CFPAC-1 cells; CFPAC-1, Test 2, 2x IC50: dose Olaparib 12.5, Ex 1 0.054, combination both 1:1): 254 and 255 | Colony count (CFPAC-1 cells; CFPAC-1, Test 2, 4x IC50: dose Olaparib 25, Ex 1 0.108, combination both 1:1): 116 and 111 | pIC50 (CFPAC-1 cells; Homo sapiens, CFPAC-1 cells, pre-determined by dose-response assay): 5.20 | Colony count (TFK-1 cells; TFK-1, Test 1, 0.25x IC50: dose Olaparib 4.5, Ex 1 3, combination both 1:1): 759 and 668 | Colony count (TFK-1 cells; TFK-1, Test 1, 0.5x IC50: dose Olaparib 9, Ex 1 6, combination both 1:1): 674 and 531 | Colony count (TFK-1 cells; TFK-1, Test 1, 1x IC50: dose Olaparib 18, combination both 1:1): 381 and 437 | Colony count (TFK-1 cells; TFK-1, Test 1, 2x IC50: dose Olaparib 36, Ex 1 24, combination both 1:1): 270 and 204 | Colony count (TFK-1 cells; TFK-1, Test 1, 4x IC50: dose Olaparib 72, Ex 1 48, combination both 1:1): 96 and 75 | Colony count (TFK-1 cells; TFK-1, Test 2, 0.25x IC50: dose Olaparib 4.5, Ex 1 3, combination both 1:1): 737 and 676 | Colony count (TFK-1 cells; TFK-1, Test 2, 0.5x IC50: dose Olaparib 9, Ex 1 6, combination both 1:1): 698 and 621 | Colony count (TFK-1 cells; TFK-1, Test 2, 1x IC50: dose Olaparib 18, combination both 1:1): 447 and 437 | Colony count (TFK-1 cells; TFK-1, Test 2, 2x IC50: dose Olaparib 36, Ex 1 24, combination both 1:1): 267 and 213 | Colony count (TFK-1 cells; TFK-1, Test 2, 4x IC50: dose Olaparib 72, Ex 1 48, combination both 1:1): 148 and 75 | pIC50 (TFK-1 cells; TFK-1 cells, pre-determined by dose-response assay): 4.74 | Colony count (HPAF-II cells; Test 1, 0.25x IC50: dose Olaparib 9.7975, Ex 1 0,001929, combination both 1:1): 522 and 507 | Colony count (HPAF-II cells; Test 1, 0.5x IC50: dose Olaparib 19.535, Ex 1 0.003883, combination both 1:1): 498 and 471 | Colony count (HPAF-II cells; Test 1, 1x IC50: dose Olaparib 39.19, Ex 1 0,007577, combination both 1:1): 381 and 427 | Colony count (HPAF-II cells; Test 1, 2x IC50: dose Olaparib 78.38, Ex 1 0.015354, combination both 1:1): 313 and 244 | Colony count (HPAF-II cells; Test 1, 4x IC50: dose Olaparib 156.76, Ex 1 0.030707, combination both 1:1): 237 and 206 | Colony count (HPAF-II cells; Test 2, 0.25x IC50: dose Olaparib 9.7975, Ex 1 0.001929, combination both 1:1): 550 and 426 | Colony count (HPAF-II cells; Test 2, 0.5x IC50: dose Olaparib 13.595, Ex 1 0.003838, combination both 1:1): 443 and 375 | Colony count (HPAF-II cells; Test 2, 1x IC50: dose Olaparib 39.19, Ex 1 0.007677, combination both 1:1): 278 and 248 | Colony count (HPAF-II cells; Test 2, 2x IC50: dose Olaparib 78.38, Ex 1 0.015354, combination both 1:1): 239 and 172 | Colony count (HPAF-II cells; Test 2, 4x IC50: dose Olaparib 156.76, Ex 1 0.030707, combination both 1:1): 142 and 92
